# US9463190B2, “Methods of treating disease-induced ataxia and non-ataxic imbalance” (UNIVERSITY OF SOUTH FLORIDA, priority 2008, dated 2016)
# Columns and labels:
# ataxia and imbalance = settings: case series and small controlled trials; cited from earlier work
# [1] = system: cerebellar symptoms of SCA14; assay: Case report: person with SCA14 taking varenicline (Example 2, second patient); format: in vivo, human; settings: for effect of prior medications on cerebellar symptoms: SCA14 patient, before varenicline; for total SARA score: blinded rating
# Procedure: The second patient was a person who presented to an academic movement disorders center for neurologic evaluation. […] They had never smoked or used drugs or alcohol and had no allergies. Their medical history was significant for hypertension, which was treated with 325 mg of valsartan (Diovan). Prior medications to treat their cerebellar symptoms included levodopa/carbidopa (Sinemet), lorazepam (Ativan), clonazapem (Klonopin), and zolpidem (Ambien), to no avail.
# On evaluation, the patient's vital signs and physical examination were normal. Their neurologic examination included a Mini-Mental Status Examination of 30/30, mild dysarthria, mild postural and intention tremor, and moderate dysmetria in all extremities. Their gait consisted of moderate to severe ataxia, and they required the constant use of a walker or the support of a cane to ambulate. The patient could tandem walk only with support. Increased tone and hyperreflexia were present in their lower extremities, with occasional myoclonus of their right leg.
# The patient was started on 0.5 mg of varenicline (Chantix®) once a day, titrating to 1 mg twice daily after 1 week with the understanding that this was being used as an off-label medication. […] The patient returned to the academic movement disorders center 3 weeks after starting varenicline. […] The patient was scored by a blinded movement disorders expert using the SARA. The patient's total SARA score before taking 1 mg of varenicline twice daily was 22, whereas the score 3 weeks after starting varenicline was 8. The patient remained on varenicline for 8 weeks with continued efficacy but discontinued it owing to financial considerations.
# [2] = biological target: α7 nicotinic acetylcholine receptors (Homo sapiens, UniProt P36544); settings: cited from earlier work
# [3] = biological target: α4β2 nicotinic acetylcholine receptors (Homo sapiens, UniProt P17787+P43681); settings: cited from earlier work
# [4] = system: cerebellar symptoms of SCA type 3; assay: Case report: person with SCA type 3 taking varenicline (Example 2, first patient); format: in vivo, human; settings: for total SARA score: blinded video rating
# From the text: The first patient was a person with a 16-year history of imbalance, gait dysfunction, and dysarthria who presented to an academic movement disorders center for management of their symptoms. […] Their medical history included one myocardial infarction 2 years ago, coronary artery disease, hypertension, and hyperlipidemia. […] On examination, the patient's vital signs and physical examination were normal. Their neurologic examination included a Mini-Mental Status Exam (MMSE) of 30/30, mild dysarthria, mild to moderate postural and intention tremor, mild dystonia in their arms, mild akinesia, and moderate dysmetria in all extremities. Fast alternating hand movements were irregular and marked by interruptions, and their heel to shin slide was severely abnormal bilaterally. Their gait was ataxic and […], and they required the constant use of a walker or the support of a cane to ambulate. Their cranial nerves and motor examination were normal, although there was mild decrease in […] sensory examination to light and deep touch in a stocking-glove distribution. There was increased tone and hyperreflexia in their lower extremities. […] After the evaluation, the patient started varenicline 0.5 mg twice daily for smoking cessation. The dose of varenicline was increased to 1 mg twice daily after one week. […] The patient returned to the academic movement disorders center one month after starting varenicline for routine follow-up. […] A videotape of the patient was scored by a blinded movement disorders expert using the SARA (Scale for Assessment and Rating of Ataxia) (1). The total SARA score prior to the patient taking varenicline 1 mg twice daily was 29, while the score one month after starting varenicline was 13.
# [5] = system: cerebellar symptoms of spinocerebellar ataxia (SCA) and Fragile-X-Associated Tremor Ataxia Syndrome (FXTAS); assay: Open-label varenicline in ataxic patients; SARA and CGI, blinded video assessment; format: in vivo, human
# Procedure: DESIGN/METHODS: Seven patients from an academic movement disorders center with spinocerebellar ataxia (n=6) and […]=1), were treated with open-label varenicline 1 mg twice daily. Two patients had genetically confirmed SCA 3, 1 patient had genetically confirmed SCA 6, 3 patients had sporadic cerebellar ataxia with no family history, and 1 patient had genetically-confirmed FXTAS. Patients were treated for 4 weeks with varenicline, which was discontinued on day 30. They were assessed at baseline and after 4 weeks using the Scale for the Assessment and Rating of Ataxia (SARA) (Schmitz-Hubsch et al, 2006) and the Clinical Global Impression (CGI) scale. Ataxia experts blindly assessed videotapes of the patients. […] In the remaining 5 patients, there was a mean improvement of 2.4 points in gait scores and of 5 points for the total SARA scores with varenicline use.
# [6] = in vivo; cited from earlier work
# [7] = system: ataxia and imbalance in Fragile X-associated Tremor Ataxia syndrome (FXTAS); assay: Case report: person with FXTAS taking varenicline (Example 1); format: in vivo, human; settings: for SARA score, functional staging for ataxia / SARA score, gait / SARA score, tandem walking: blinded video rating
# Procedure: The patient was a person with a nine-year history of postural and intention tremor of their arms and a four-year history of gait ataxia. Their symptoms became disabling in the past year with frequent falls despite the intermittent use of a walker. […] A timeline of the patient's clinical course is depicted in FIG. 1. […] One week after taking varenicline, they noted that their walking improved and they no longer needed assistance from a walker to ambulate. […] The patient was evaluated by the University of South Florida (USF) movement disorders center seven weeks after starting varenicline. Vital signs and physical examination were normal. Their neurological examination included a Mini Mental State Exam (MMSE) of 26/30, mild dysarthria, mild voice tremor, severe postural and intention tremor of their arms, mild rigidity, and moderate dysmetria in all extremities. They were able to get out of a chair without assistance, and continued to walk six meters five times (30 meters total) without rest or the assistance of a walker. They were able to tandem walk for two to three steps. The rest of their neurological exam, including cranial nerves, reflexes, motor and sensory examination, was within normal limits. The patient received a score of 5 (out of a maximum possible score=63) on a Beck's Depression Scale (BDI) (2). […] Chest X-ray was clear, with no evidence of neoplasia. The patient stopped varenicline seven weeks after starting it. Within 10 days, they reported a slight worsening of the residual ataxia and imbalance. Within three weeks, they again needed a walker for ambulation and began to fall daily. The patient returned to clinic off varenicline. […] They once again needed assistance to walk and was unable to tandem walk even with assistance. The rest of the neurological examination remained unchanged, including the postural and intention tremor. […] At week 11, the patient re-started varenicline one mg twice daily, and again noted improvement in ataxia within one week. Due to vivid dreams, the varenicline dose was decreased to one mg daily at week 12. The patient has taken varenicline for 22 weeks, with a sustained ataxia improvement. A videotape of the patient was scored by a blinded movement disorders expert using the SARA (Scale for Assessment and Rating of Ataxia) (3). The SARA scores on varenicline one mg b.i.d. were “two” for functional staging for ataxia (ataxic symptoms were present and were recognized by patient, but were still mild), “one” for tandem walking (the patient was able to tandem walk in less than perfect manner or the patient could tandem walk greater than four sequential steps but less than eight steps) and “zero” for gait (normal). The SARA scores after the patient had discontinued varenicline for three weeks included a “three” for functional staging for ataxia (ataxic symptoms considered overt and significant), “three” for tandem walking (the patient was considered too poorly coordinated to attempt the task), and “two” for gait (the patient walked with definite ataxia; may have needed intermittent support for walking or the examiner needed to walk with patient for safety sake).
# [8] = one month after starting varenicline
# [9] = twenty-one days after first taking varenicline
# [10] = of 5 remaining patients, 1 mg twice daily, 4 weeks
# [11] = varenicline discontinued for three weeks
# [12] = varenicline stopped after seven weeks
# [13] = 3 weeks after starting varenicline
# Chain of α4β2 nicotinic acetylcholine receptors (P43681 29-627 limits assumed): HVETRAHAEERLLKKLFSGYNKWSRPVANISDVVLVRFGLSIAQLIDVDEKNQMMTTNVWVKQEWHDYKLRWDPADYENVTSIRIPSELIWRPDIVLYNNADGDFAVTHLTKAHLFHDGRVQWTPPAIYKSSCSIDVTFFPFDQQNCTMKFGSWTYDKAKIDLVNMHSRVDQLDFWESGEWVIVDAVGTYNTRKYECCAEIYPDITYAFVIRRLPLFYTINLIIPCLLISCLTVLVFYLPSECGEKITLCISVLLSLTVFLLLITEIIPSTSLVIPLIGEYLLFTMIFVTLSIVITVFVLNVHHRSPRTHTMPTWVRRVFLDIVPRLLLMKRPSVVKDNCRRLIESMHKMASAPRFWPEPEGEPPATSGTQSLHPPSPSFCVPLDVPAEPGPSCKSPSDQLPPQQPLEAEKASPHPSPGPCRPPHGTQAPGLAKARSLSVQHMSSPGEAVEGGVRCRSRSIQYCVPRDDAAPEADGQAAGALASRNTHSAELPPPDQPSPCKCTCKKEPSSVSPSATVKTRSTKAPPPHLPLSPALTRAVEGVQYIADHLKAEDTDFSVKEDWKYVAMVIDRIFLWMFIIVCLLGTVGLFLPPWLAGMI
# Chain of α4β2 nicotinic acetylcholine receptors (P17787 26-502): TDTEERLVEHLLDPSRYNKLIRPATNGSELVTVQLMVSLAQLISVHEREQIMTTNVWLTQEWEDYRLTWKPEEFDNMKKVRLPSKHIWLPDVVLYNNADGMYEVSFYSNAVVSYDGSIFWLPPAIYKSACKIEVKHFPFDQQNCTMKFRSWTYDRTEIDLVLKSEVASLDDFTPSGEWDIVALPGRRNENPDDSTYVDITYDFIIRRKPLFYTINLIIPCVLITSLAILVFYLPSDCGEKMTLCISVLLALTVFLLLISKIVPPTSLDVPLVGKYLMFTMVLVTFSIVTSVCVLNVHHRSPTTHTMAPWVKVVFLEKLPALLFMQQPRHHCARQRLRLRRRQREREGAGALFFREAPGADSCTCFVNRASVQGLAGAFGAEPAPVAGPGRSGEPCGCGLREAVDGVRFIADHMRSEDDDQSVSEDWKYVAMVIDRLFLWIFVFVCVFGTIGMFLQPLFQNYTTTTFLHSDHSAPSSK
# Chain of α7 nicotinic acetylcholine receptors (P36544 23-502): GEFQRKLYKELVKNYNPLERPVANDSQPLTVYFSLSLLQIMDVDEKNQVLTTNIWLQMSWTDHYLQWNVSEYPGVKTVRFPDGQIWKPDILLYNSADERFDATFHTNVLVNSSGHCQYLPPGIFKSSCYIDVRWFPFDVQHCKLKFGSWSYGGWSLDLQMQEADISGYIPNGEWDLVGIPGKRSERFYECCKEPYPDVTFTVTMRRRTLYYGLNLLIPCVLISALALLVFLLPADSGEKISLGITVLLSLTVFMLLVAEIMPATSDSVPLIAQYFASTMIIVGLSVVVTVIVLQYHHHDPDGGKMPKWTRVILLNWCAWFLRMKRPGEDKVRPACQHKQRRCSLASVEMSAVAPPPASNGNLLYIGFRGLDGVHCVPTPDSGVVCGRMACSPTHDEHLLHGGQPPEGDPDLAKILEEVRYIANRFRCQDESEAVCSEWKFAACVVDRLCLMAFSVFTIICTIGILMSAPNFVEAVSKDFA
compound,measurement,setting,value
O=C1CC2(CCCC2)CC(=O)N1CCCCN1CCN(c2ncccn2)CC1 [buspirone],efficacy in ataxia and imbalance,ataxia and imbalance,either conflicting results or limited efficacy
O=C1CN=C(c2ccccc2Cl)c2cc([N+](=O)[O-])ccc2N1 [clonazapem],effect of prior medications on cerebellar symptoms,[1],to no avail
CNCCC(Oc1ccc(C(F)(F)F)cc1)c1ccccc1 (stereo not drawn) [fluoxetine],efficacy in ataxia and imbalance,ataxia and imbalance,either conflicting results or limited efficacy
Nc1nnc(-c2cccc(Cl)c2Cl)c(N)n1 [lamotrigine],efficacy in ataxia and imbalance,ataxia and imbalance,either conflicting results or limited efficacy
O=C1Nc2ccc(Cl)cc2C(c2ccccc2Cl)=NC1O (stereo not drawn) [lorazepam],effect of prior medications on cerebellar symptoms,[1],to no avail
"c1cnc2cc3c(cc2n1)[C@@H]1CNC[C@H]3C1 [varenicline, 7,8,9,10-tetrahydro-6,10-methano-6H-pyrazino (2,3-h)(3) benzazepine]",type of activity at α7 nicotinic acetylcholine receptors,[2],full agonist
same,type of activity at α4β2 nicotinic acetylcholine receptors,[3],highly selective partial agonist
same,"time to reported improvement in depth perception and easier, more stable walking","[4]; 0.5 mg twice daily, 1 mg twice daily after one week",Ten
same,gait dysfunction and akinesia,[4]; [8],improved markedly
same,"limb dysmetria, fast alternating movements, finger to nose and heel-shin slide",[4]; [8],markedly improved
same,total SARA score,[4]; [8],13
same,total SARA score,[4]; prior to taking varenicline 1 mg twice daily,29
same,balance,[4]; [9],markedly improved
same,distance walked using only a cane rather than a walker,[4]; [9],3 blocks
same,smoking cessation,[4]; while taking varenicline,did not stop smoking cigarettes
same,mean improvement in total SARA scores,"[5]; 5 remaining patients, varenicline 1 mg twice daily, 4 weeks vs baseline",5 points
same,mean improvement in gait scores,"[5]; 5 remaining patients, varenicline 1 mg twice daily, 4 weeks vs baseline, SARA",2.4 points
same,effect on cerebellar symptoms (conclusion),[5]; blinded video analysis of ataxic patients,effectively treat cerebellar symptoms
same,patients with marked improvement in gait as measured by the CGI,[5]; [10],Three
same,patients with moderate improvement in gait as measured by the CGI,[5]; [10],2 patients
same,reason for discontinuation of varenicline,"[5]; two of seven patients (one SCA 6, one sporadic ataxia)",flu-like symptoms and increased tremor
same,reduction of intake of cigarettes,"[5]; two smokers with marked improvement in gait, while taking varenicline",50%
same,adverse effects,[6],"nausea, sleep disturbance, constipation, flatulence, and vomiting"
same,potential risks associated with use,[6],"suicidal behavior, depressed mood, and agitation"
same,ataxia and imbalance after starting varenicline,[7]; FXTAS patient,greatly improved
same,duration of sustained response after open-label resumption,[7]; FXTAS patient,five
same,BDI score off varenicline,[7]; after discontinuation,had not changed
same,neurological examination off varenicline,[7]; after discontinuation,returned to the pre-varenicline state
same,duration of varenicline use with sustained ataxia improvement,[7]; dose decreased to one mg daily at week 12,22 weeks
same,"SARA score, functional staging for ataxia",[7]; on varenicline one mg b.i.d.,two
same,"SARA score, gait",[7]; on varenicline one mg b.i.d.,zero
same,"SARA score, tandem walking",[7]; on varenicline one mg b.i.d.,one
same,onset of vivid dreaming after starting,[7]; one mg twice daily,two
same,side effect,[7]; one mg twice daily,vivid dreaming
same,smoking cessation,[7]; one mg twice daily,helped them quit smoking in a few days
same,time until walking improved and walker no longer needed,[7]; one mg twice daily,One
same,balance,"[7]; one mg twice daily, one week",marked improvement
same,Beck's Depression Scale (BDI) score,"[7]; seven weeks after starting varenicline, maximum possible score 63",5
same,distance walked without rest or assistance of a walker,"[7]; seven weeks after starting varenicline, six meters five times",30 meters
same,"SARA score, functional staging for ataxia",[7]; [11],three
same,"SARA score, gait",[7]; [11],two
same,"SARA score, tandem walking",[7]; [11],three
same,time to slight worsening of residual ataxia and imbalance after stopping,[7]; [12],≤ 10 days
same,time until walker again needed and daily falls after stopping,[7]; [12],three
same,duration of nausea after taking the medication,"[1]; 0.5 mg once a day, titrating to 1 mg twice daily after 1 week",7 days
same,"speech, dysmetria, finger-to-nose and heel-to-shin maneuvers",[1]; [13],markedly improved
same,total SARA score,[1]; [13],8
same,gait dysfunction,"[1]; 3 weeks after starting varenicline, could walk without assistance",improved markedly
same,neurologic examination after discontinuation,[1]; 4 weeks after discontinuing varenicline,returned to prevarenicline status
same,"time to reported marked improvements in walking, coordination, speech and balance",[1]; after starting varenicline,8 days
same,total SARA score,[1]; before taking 1 mg of varenicline twice daily,22
same,duration on varenicline with continued efficacy,[1]; discontinued owing to financial considerations,8 weeks
Cc1ccc(-c2nc3ccc(C)cn3c2CC(=O)N(C)C)cc1 [zolpidem],efficacy in ataxia and imbalance,ataxia and imbalance,either conflicting results or limited efficacy
same,effect of prior medications on cerebellar symptoms,[1],to no avail
